According to ChEMBL document CHEMBL5465560, “Selectivity Literature for EUbOPEN Chemogenomic Library” (2024):
Blank lines part the entries; values can stand above or below the compound they belong to.

Experiments:
[1] = biological target: Casein kinase I isoform gamma-3 (Homo sapiens) (UniProt Q9Y6M4); assay: Selectivity interaction (KinomeScan (DiscoverX)) EUB0000045b CSNK1G3
[2] = biological target: T1, Serine/threonine-protein kinase 17B (Homo sapiens) (UniProt O94768); assay: Selectivity interaction (KinomeScan (DiscoverX)) EUB0000045b STK17B
T1 sequence (whole entry): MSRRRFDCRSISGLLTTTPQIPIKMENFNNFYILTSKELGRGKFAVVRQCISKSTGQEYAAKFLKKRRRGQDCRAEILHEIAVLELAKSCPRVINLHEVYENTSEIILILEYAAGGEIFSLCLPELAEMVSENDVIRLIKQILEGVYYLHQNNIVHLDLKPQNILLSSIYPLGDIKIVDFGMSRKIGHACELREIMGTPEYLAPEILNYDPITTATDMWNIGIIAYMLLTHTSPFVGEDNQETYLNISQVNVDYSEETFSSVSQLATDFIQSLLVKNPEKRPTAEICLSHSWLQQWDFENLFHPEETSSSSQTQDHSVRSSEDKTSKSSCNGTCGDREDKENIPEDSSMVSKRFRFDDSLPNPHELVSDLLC

[3] = biological target: T2, Mitogen-activated protein kinase kinase kinase 6 (Homo sapiens) (UniProt O95382); assay: Selectivity interaction (ActivX KiNativ screen (kinase selectivity in THP-1 cell lysates)) EUB0000639a MAP3K6; assay type: subcellular; conditions: lysate, at 0.2 µM
T2 sequence (whole entry): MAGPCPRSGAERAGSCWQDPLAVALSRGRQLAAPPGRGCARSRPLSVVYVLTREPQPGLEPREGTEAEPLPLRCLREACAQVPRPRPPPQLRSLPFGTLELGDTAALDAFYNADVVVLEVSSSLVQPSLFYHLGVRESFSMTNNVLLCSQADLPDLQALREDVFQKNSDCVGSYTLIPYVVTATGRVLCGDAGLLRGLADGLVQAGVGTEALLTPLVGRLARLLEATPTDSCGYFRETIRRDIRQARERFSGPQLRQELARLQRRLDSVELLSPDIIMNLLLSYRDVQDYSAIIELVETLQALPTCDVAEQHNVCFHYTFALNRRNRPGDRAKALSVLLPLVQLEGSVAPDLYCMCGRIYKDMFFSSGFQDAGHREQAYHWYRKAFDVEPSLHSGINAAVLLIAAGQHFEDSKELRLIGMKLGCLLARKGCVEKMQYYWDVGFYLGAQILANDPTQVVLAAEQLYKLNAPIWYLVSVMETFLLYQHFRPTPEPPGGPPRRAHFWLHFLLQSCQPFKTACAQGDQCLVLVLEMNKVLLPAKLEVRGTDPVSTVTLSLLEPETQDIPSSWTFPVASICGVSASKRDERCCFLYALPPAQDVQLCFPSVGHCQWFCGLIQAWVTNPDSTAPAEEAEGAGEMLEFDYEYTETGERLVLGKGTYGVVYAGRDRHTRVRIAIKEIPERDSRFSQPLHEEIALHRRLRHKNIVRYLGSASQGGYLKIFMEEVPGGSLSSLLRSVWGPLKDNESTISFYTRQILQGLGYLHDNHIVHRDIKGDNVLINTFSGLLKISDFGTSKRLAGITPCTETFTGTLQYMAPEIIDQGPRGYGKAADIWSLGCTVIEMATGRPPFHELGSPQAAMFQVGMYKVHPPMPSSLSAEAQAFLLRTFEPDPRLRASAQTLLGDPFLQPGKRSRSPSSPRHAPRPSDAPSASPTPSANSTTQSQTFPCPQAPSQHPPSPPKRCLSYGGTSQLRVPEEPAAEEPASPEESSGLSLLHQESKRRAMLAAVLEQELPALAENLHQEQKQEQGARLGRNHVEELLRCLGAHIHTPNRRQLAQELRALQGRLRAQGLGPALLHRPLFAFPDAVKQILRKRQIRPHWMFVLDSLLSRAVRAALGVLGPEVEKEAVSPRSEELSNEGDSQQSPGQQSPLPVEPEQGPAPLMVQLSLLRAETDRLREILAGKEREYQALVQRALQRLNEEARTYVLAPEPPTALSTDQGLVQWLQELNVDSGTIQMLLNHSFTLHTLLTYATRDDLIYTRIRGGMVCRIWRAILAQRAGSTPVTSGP

[4] = biological target: T3, Serine/threonine-protein kinase TBK1 (Homo sapiens) (UniProt Q9UHD2); assay: Selectivity interaction (KinomeScan (DiscoverX)) EUB0000229b TBK1; conditions: at 10 µM
T3 sequence (whole entry): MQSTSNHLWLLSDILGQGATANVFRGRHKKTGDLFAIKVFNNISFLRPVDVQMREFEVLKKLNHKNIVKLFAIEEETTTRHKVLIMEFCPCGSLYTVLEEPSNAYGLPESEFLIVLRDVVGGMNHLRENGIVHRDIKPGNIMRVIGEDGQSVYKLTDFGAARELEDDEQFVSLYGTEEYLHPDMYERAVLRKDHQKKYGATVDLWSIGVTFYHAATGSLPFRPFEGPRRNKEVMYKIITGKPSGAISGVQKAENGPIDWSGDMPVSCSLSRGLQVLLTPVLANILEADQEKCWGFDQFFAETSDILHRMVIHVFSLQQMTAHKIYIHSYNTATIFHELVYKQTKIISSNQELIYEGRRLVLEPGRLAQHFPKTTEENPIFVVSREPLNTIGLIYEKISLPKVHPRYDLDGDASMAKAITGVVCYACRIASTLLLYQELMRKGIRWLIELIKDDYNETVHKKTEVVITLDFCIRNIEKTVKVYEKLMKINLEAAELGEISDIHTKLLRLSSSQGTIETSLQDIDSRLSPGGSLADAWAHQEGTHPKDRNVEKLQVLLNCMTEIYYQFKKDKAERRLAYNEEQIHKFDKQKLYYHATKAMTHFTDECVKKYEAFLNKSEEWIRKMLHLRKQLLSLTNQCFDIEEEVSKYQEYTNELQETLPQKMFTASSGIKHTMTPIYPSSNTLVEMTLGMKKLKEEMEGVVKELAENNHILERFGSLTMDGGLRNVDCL

[5] = biological target: T4, Dual specificity mitogen-activated protein kinase kinase 6 (Homo sapiens) (UniProt P52564); assay: (§1) Selectivity interaction (LanthaScreen Eu Kinase Binding Assay) EUB0001632a MAP2K6; conditions: at 10 µM
T4 sequence (whole entry): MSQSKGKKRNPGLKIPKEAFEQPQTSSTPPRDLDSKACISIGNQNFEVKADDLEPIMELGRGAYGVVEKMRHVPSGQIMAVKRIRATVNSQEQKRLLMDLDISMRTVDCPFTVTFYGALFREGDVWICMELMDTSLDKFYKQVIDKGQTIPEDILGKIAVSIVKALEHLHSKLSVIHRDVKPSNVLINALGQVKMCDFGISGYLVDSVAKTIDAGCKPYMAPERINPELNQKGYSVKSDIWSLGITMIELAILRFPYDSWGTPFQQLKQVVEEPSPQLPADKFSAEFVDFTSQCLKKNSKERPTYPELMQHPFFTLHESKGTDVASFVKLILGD

[6] = system: Dual specificity mitogen-activated protein kinase kinase 6 (Homo sapiens), P52564 [S207E,T211E]; assay: as §1; conditions: at 10 µM
Chain of Dual specificity mitogen-activated protein kinase kinase 6 (Homo sapiens), P52564 [S207E,T211E] (P52564 whole entry S207E/T211E): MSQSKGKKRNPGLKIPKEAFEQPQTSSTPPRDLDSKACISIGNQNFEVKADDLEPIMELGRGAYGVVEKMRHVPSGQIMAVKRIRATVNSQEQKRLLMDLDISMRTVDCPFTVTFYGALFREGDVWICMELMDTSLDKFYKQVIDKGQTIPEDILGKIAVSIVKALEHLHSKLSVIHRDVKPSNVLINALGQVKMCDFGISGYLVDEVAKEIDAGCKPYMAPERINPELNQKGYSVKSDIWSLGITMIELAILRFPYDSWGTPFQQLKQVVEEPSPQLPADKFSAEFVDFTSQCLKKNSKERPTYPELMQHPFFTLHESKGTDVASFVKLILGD

Chain of Casein kinase I isoform gamma-3 (Homo sapiens) (Q9Y6M4 whole entry, looked up, canonical isoform): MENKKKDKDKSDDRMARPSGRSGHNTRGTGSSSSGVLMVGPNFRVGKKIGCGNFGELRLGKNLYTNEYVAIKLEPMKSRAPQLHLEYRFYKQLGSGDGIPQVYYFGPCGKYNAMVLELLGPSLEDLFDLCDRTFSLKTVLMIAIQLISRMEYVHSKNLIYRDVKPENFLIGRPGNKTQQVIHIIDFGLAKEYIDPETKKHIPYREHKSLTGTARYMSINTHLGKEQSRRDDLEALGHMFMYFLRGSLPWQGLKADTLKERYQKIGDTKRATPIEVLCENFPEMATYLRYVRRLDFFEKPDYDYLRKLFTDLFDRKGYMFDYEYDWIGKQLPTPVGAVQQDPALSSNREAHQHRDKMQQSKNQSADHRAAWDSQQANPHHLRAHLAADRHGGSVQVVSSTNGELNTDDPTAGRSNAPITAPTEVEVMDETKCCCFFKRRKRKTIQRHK

SMILES: C=CC(=O)Nc1cc(-n2c(=O)ccc3cnc4ccc(-c5ccc(NS(C)(=O)=O)cc5)cc4c32)ccc1C
% of control ([1]; at 1 µM): 100%
% of control ([1]; at 10 µM): 84%
% of control ([2]; at 1 µM): 100%
% of control ([2]; at 10 µM): 100%

% of inhibition [3]: -13.5%
SMILES: CC[C@@H]1[C@H](F)C(=O)N[C@@H]1COc1nccc2cc(C(N)=O)c(OC)cc12 [ZIMLOVISERTIB]

SMILES: COc1cc(N(C)c2ccnc3ccc(C(F)(F)F)cc23)cc(OC)c1OC
% binding [4]: 72%

% of inhibition [5]: -35%
% of inhibition [6]: -8.6%
SMILES: Cn1cc(-n2cnc3c(NCc4nc5cc(Cl)c(Cl)cc5[nH]4)nc(N4CCOCC4)nc32)cn1
